Here are results for 30 compounds from US10099993B2, “Metabotropic glutamate receptor positive allosteric modulators (PAMS) and uses thereof” (Sanford-Burnham Medical Research Institute, priority 2014, dated 2018).

In one assay the target is mGlu2 (Rattus norvegicus (Rat), UniProt P31421). The experiment in a line: mGlu2 GIRK thallium flux assay.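 As to all read-outs here: Cell-based assay, rate of fluorescence rise right after thallium plus agonist addition read on a kinetic imaging plate reader, normalized to vehicle and maximal agonist control.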 The note with it: for EC50: read-out: mGlu2 PAM EC50, PAM mode, test compound, then EC20 glutamate […] later in the presence of thallium, mean ± SEM, at least three experiments; for Emax: read-out: mGlu2 PAM Max.
The target of the next assay is mGlu3 (Rattus norvegicus (Rat), UniProt P31422). Nature of the assay: mGlu3 GIRK thallium flux assay.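 As to all read-outs here: kinetic fluorescence slope read shortly after thallium plus agonist addition, scaled between vehicle and maximal agonist control.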 To be noted: for EC50: read-out: mGlu3 PAM EC50, PAM mode, test compound, then EC20 glutamate […] later in the presence of thallium, mean ± SEM; for Emax: read-out: mGlu3 PAM Max.
Chain of mGlu3 (P31422 23-879): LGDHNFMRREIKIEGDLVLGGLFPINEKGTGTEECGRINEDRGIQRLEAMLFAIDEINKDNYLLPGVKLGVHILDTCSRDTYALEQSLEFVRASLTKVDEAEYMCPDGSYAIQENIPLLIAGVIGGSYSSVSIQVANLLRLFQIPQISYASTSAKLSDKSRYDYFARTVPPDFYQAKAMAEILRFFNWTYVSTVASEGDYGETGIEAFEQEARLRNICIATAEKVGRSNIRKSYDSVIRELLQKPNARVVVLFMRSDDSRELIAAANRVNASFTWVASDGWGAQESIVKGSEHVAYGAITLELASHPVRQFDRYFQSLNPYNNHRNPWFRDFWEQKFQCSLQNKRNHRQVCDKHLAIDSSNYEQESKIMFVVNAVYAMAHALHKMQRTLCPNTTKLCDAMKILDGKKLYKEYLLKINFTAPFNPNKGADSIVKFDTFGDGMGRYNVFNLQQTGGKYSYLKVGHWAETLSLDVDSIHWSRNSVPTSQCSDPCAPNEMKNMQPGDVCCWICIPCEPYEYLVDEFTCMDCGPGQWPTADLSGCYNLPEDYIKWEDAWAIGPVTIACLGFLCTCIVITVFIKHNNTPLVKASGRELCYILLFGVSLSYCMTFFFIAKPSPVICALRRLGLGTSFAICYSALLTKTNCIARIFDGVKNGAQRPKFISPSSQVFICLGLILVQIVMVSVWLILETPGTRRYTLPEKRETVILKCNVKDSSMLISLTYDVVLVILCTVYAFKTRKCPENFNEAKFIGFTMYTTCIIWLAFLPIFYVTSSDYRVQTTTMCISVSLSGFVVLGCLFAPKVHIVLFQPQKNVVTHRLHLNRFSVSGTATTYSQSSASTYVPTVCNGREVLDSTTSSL

Chain of mGlu2 (P31421 19-872): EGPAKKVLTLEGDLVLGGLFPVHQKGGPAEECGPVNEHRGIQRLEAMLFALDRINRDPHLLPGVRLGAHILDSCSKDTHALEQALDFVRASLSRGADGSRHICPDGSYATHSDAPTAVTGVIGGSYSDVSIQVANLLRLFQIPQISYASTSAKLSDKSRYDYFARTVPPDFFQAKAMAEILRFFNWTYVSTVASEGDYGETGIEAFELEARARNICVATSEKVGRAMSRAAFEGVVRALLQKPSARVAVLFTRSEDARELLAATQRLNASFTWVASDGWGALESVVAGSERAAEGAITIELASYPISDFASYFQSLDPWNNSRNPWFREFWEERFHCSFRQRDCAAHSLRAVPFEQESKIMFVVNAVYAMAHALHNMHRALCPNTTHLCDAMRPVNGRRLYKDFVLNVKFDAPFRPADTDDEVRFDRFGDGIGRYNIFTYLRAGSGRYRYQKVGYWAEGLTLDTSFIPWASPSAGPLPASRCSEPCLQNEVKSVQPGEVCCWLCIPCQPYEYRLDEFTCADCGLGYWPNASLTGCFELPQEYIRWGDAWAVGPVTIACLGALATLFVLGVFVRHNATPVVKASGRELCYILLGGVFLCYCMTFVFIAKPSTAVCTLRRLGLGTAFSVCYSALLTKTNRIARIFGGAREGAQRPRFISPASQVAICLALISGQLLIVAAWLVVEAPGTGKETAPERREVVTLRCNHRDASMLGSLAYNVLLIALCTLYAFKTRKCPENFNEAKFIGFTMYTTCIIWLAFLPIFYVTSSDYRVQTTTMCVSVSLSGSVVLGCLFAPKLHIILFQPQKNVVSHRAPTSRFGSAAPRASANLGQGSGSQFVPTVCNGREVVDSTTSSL

For the compound `COC(=O)c1ccc(OCCCCOc2ccc(C(=O)CC3CCCC3)c(C)c2C)cc1` [Compound 15, Methyl 4-(4-(4-(2-cyclopentylacetyl)-2,3-dimethylphenoxy)butoxy)benzoate], the EC50 on mGlu2 and at mGlu3 was > 30 µM in each case.
On to `COc1ccc(-c2noc(=S)[nH]2)cc1OCCCCOc1ccc(C(=O)CC(C)(C)C)c(O)c1C` [compound 99, 1-(2-Hydroxy-4-(4-(2-methoxy-5-(5-thioxo-4,5-dihydro-1,2,4-oxadiazol-3-yl)phenoxy)butoxy)-3-methylphenyl)-3,3-dimethylbutan-1-one], for which, on mGlu2, the EC50 (usually the concentration giving half of the maximal effect) is 1.03 ± 0.07 µM and the Emax came to 81%. Besides, at mGlu3, the EC50 was 1.15 ± 0.307 µM and the Emax is 63.6 ± 5%.
On to `COc1ccc(/C(N)=N/O)cc1OCCCCOc1ccc(C(=O)CC(C)(C)C)c(O)c1C` [compound 97, (Z)-3-(4-(4-(3,3-Dimethylbutanoyl)-3-hydroxy-2-methylphenoxy)butoxy)-N′-hydroxy-4-methoxybenzimidamide], for which, at mGlu2, the EC50 is > 10 µM and the Emax was 57.2 ± 1.4%. Besides, on mGlu3, the EC50 is > 30 µM and the Emax came to 24.4 ± 4.7%.
On to `Cc1c(OCCCCOc2ccc(C#N)cc2)ccc(C(=O)CC(C)C)c1C` [compound 77], for which the half-maximal effective concentration (EC50) on mGlu2 and at mGlu3 was > 30 µM throughout.
As to `COC(=O)c1ccc(OCc2cccc(COc3ccc(C(=O)CC4CCCC4)c(C)c3C)c2)cc1` [compound 155], the EC50 at mGlu2 and at mGlu3 was > 30 µM throughout.
Turning to `Cc1c(OCc2cccc(COc3ccc(C(=O)O)cc3)c2)ccc(C(=O)CC(C)C)c1C` [compound 123], the EC50 on mGlu2 and on mGlu3 was > 30 µM in each case.
Regarding `COc1ccc(-c2cccc(COc3ccc(C(=O)CC(C)(C)C)c(O)c3C)c2)cc1C(=O)O` [compound 140, 3′-((4-(3,3-Dimethylbutanoyl)-3-hydroxy-2-methylphenoxy)methyl)-4-methoxy-[1,1′-biphenyl]-3-carboxylic acid], at mGlu2, the 50% effective concentration (EC50) was 0.489 ± 0.073 µM and the Emax was 86.1 ± 6.1%. Also, on mGlu3, the EC50 came to 8.41 ± 4.84 µM and the Emax was found to be 67.2 ± 13.3%.
With `Cc1c(OCc2cccc(-c3cccc(C(=O)NS(C)(=O)=O)c3)c2)ccc(C(=O)CC(C)(C)C)c1O` [compound 156, 3′-((4-(3,3-Dimethylbutanoyl)-3-hydroxy-2-methylphenoxy)methyl)-N-(methylsulfonyl)-[1,1′-biphenyl]-3-carboxamide], the Emax at mGlu2 was 105 ± 2.1%; on mGlu3 it was 103 ± 1.7%.
Consider `Cc1c(OCCCCSc2ccncc2)ccc(C(=O)CC(C)C)c1C` [Compound 189], for which the EC50 on mGlu2 and on mGlu3 was > 30 µM throughout.
As to `COc1ccc(B2OC(C)(C)C(C)(C)O2)cc1OCCCCOc1ccc(C(=O)CC(C)(C)C)c(O)c1C` [compound 87, 1-(2-Hydroxy-4-(4-(2-methoxy-5-(4,4,5,5-tetramethyl-1,3,2-dioxaborolan-2-yl)phenoxy)butoxy)-3-methylphenyl)-3,3-dimethylbutan-1-one], the figures for the Emax on mGlu2 and at mGlu3 were 49.5 ± 3.5% and 24.9 ± 9.6%, respectively.
The matching figures for `COc1ccc(C(=O)O)cc1OCCCCOc1ccc(C(=O)CCC(C)(C)C)c(O)c1C` [compound 96, 3-(4-(4-(4,4-Dimethylpentanoyl)-3-hydroxy-2-methylphenoxy)butoxy)-4-methoxybenzoic acid]: 88.6 ± 0.9% and 95.3 ± 5%.
`Cc1c(OCCCCOc2ccc(F)c(C(=O)O)c2)ccc(C(=O)CC2CCCC2)c1C` [Compound 35, 5-(4-(4-(2-Cyclopentylacetyl)-2,3-dimethylphenoxy)butoxy)-2-fluorobenzoic acid]: the EC50 at mGlu2 and at mGlu3 was > 30 µM each time.
On to `Cc1c(OCCCCSc2ccccn2)ccc(C(=O)CC(C)C)c1O` [Compound 184], for which the concentration giving a half-maximal response (EC50) on mGlu2 is > 10 µM; at mGlu3 it was > 30 µM.
As for `Cc1c(OCc2cccc(-c3cccc(-c4nn[nH]n4)c3)c2)ccc(C(=O)CC(C)(C)C)c1O` [compound 152, 1-(4-((3′-(2H-Tetrazol-5-yl)-[1,1′-biphenyl]-3-yl)methoxy)-2-hydroxy-3-methylphenyl)-3,3-dimethylbutan-1-one], the figures for the Emax on mGlu2 and on mGlu3 were 103 ± 1.8% and 98.9 ± 3.7%, respectively.
As for `Cc1c(OCCCCOc2cccc(C(=O)O)c2)ccc(C(=O)CC2CCCC2)c1C` [Compound 23, 3-(4-(4-(2-Cyclopentylacetyl)-2,3-dimethylphenoxy)butoxy)benzoic acid], the EC50 on mGlu2 and at mGlu3 was > 30 µM each time.
Take `Cc1c(OCc2cccc(-c3cc(F)cc(C(=O)O)c3)c2)ccc(C(=O)CC(C)(C)C)c1O` [compound 136, 3′-((4-(3,3-Dimethylbutanoyl)-3-hydroxy-2-methylphenoxy)methyl)-5-fluoro-[1,1′-biphenyl]-3-carboxylic acid]: at mGlu2, the EC50 was 0.308 ± 0.04 µM and the Emax was 93.3 ± 2.1%. Further, on mGlu3, the EC50 is 0.496 ± 0.086 µM and the Emax came out at 77.4 ± 7.1%.
For the compound `Cc1c(OCCCCOc2ccccn2)ccc(C(=O)CC(C)C)c1O` [Compound 185], the EC50 is 2.79 ± 0.102 µM at mGlu2 and > 30 µM at mGlu3. Besides, the Emax turned out to be 66.3 ± 0.6% on mGlu2 and 22.4 ± 4.3% at mGlu3.
On to `COC(=O)c1ccc(OCc2cccc(COc3ccc(C(=O)CC(C)C)c(C)c3C)c2)cc1` [compound 116], for which the concentration for a half-maximal effect (EC50) at mGlu2 and on mGlu3 was > 30 µM each time.
In the case of `COC(=O)c1ccc(OCc2cccc(COc3ccc(C(=O)CC(C)C)c(O)c3C)c2)cc1` [compound 119], the half-maximal effective concentration (EC50) on mGlu2 and on mGlu3 was > 30 µM in each case.
With `Cc1c(OCc2cccc(-c3ccccc3C(=O)O)c2)ccc(C(=O)CC(C)(C)C)c1O` [compound 138, 3′-((4-(3,3-Dimethylbutanoyl)-3-hydroxy-2-methylphenoxy)methyl)-[1,1′-biphenyl]-2-carboxylic acid], on mGlu2, the 50% effective concentration (EC50) worked out at 0.643 ± 0.137 µM and the Emax turned out to be 42.1 ± 7.1%. In addition, on mGlu3, the EC50 was > 10 µM and the Emax worked out at 23.5 ± 4.6%.
The matching figures for `COc1ccc(-c2nsc(=O)[nH]2)cc1OCCCCOc1ccc(C(=O)CC(C)(C)C)c(O)c1C` [compound 100, 3-(3-(4-(4-(3,3-Dimethylbutanoyl)-3-hydroxy-2-methylphenoxy)butoxy)-4-methoxyphenyl)-1,2,4-thiadiazol-5(4H)-one]: 2.22 ± 0.709 µM, 68.1 ± 0.9%, > 30 µM and 33.9 ± 10.1%.
The matching figures for `Cc1c(OCc2cccc(-c3occc3C(=O)O)c2)ccc(C(=O)CC(C)(C)C)c1O` [Compound 178, 2-(3-((4-(3,3-Dimethylbutanoyl)-3-hydroxy-2-methylphenoxy)methyl)phenyl)furan-3-carboxylic acid]: 0.409 ± 0.105 µM, 81.4 ± 10.1%, 2.87 ± 1.12 µM and 67.7 ± 11.7%.
Turning to `Cc1c(OCc2cccc(-c3cccc(C(=O)O)c3)c2)ccc(C(=O)C(C)C)c1O` [compound 131, 3′-((3-Hydroxy-4-isobutyryl-2-methylphenoxy)methyl)-[1,1′-biphenyl]-3-carboxylic acid], the figures for the EC50 at mGlu2 and at mGlu3 were 0.222 ± 0.082 µM and 1.75 ± 0.891 µM, respectively. Further, the Emax on mGlu2 came out at 83.2 ± 12.3%; at mGlu3, 55 ± 24.4%.
Take `Cc1c(OCc2cccc(-c3ccc(Cl)c(C(=O)O)c3)c2)ccc(C(=O)CC(C)(C)C)c1O` [compound 133, 4-Chloro-3′-((4-(3,3-dimethylbutanoyl)-3-hydroxy-2-methylphenoxy)methyl)-[1,1′-biphenyl]-3-carboxylic acid]: at mGlu2, the EC50 was determined as 0.433 ± 0.099 µM and the Emax was 90.2 ± 4.1%. At mGlu3, the EC50 was 1.71 ± 0.888 µM and the Emax turned out to be 70.9 ± 3.6%.
The matching figures for `Cc1c(OCc2cccc(-c3cncc(C(=O)O)c3)c2)ccc(C(=O)CC(C)(C)C)c1O` [Compound 179, 5-(3-((4-(3,3-Dimethylbutanoyl)-3-hydroxy-2-methylphenoxy)methyl)phenyl)nicotinic acid]: 0.848 ± 0.009 µM, 100 ± 2.9%, 1.01 ± 0.02 µM and 102 ± 3.5%.
With `Cc1c(OCc2cccc(-c3cccc(CC(=O)O)c3)c2)ccc(C(=O)CC(C)(C)C)c1O` [compound 145, 2-(3′-((4-(3,3-dimethylbutanoyl)-3-hydroxy-2-methylphenoxy)methyl)-[1,1′-biphenyl]-3-yl)acetic acid], on mGlu2, the EC50 was determined as 1.36 ± 0.259 µM and the Emax was 93.4 ± 11.4%. On mGlu3, the EC50 came to 3.94 ± 1.32 µM and the Emax was determined as 79.1 ± 15%.
With `COC(=O)c1ccc(OCCCCOc2ccc(C(=O)CC(C)C)c(C)c2C)cc1` [Compound 14, Methyl 4-(4-(2,3-dimethyl-4-(3-methylbutanoyl)phenoxy)butoxy)benzoate], the EC50 at mGlu2 and at mGlu3 was > 30 µM throughout.
On to `CC(C)(C)CC(=O)c1ccc(OCc2cccc(-c3cccc(C(=O)O)c3)c2)c(I)c1O` [Compound 192, 3′-((4-(3,3-Dimethylbutanoyl)-3-hydroxy-2-iodophenoxy)methyl)-[1,1′-biphenyl]-3-carboxylic acid], for which the Emax at mGlu2 came to 82 ± 5.1%; on mGlu3, 62.6 ± 9.7%.
Consider `Cc1c(OCc2cccc(-c3ccc(C(=O)O)cc3)c2)ccc(C(=O)CC(C)(C)C)c1O` [compound 132, 3′-((4-(3,3-Dimethylbutanoyl)-3-hydroxy-2-methylphenoxy)methyl)-[1,1′-biphenyl]-4-carboxylic acid], for which, at mGlu2, the EC50 was 0.561 ± 0.063 µM and the Emax came to 90.5 ± 13.8%. Also, at mGlu3, the EC50 turned out to be 1.64 ± 0.487 µM and the Emax worked out at 57.5 ± 20.9%.
For the compound `COc1ccc(C(=O)N2CCOCC2)cc1OCCCCOc1ccc(C(=O)CC(C)(C)C)c(O)c1C` [compound 101, 1-(2-Hydroxy-4-(4-(2-methoxy-5-(morpholine-4-carbonyl)phenoxy)butoxy)-3-methylphenyl)-3,3-dimethylbutan-1-one], on mGlu2, the EC50 worked out at 0.875 ± 0.003 µM and the Emax worked out at 113 ± 1.2%. Besides, at mGlu3, the concentration giving a half-maximal response (EC50) came to 0.741 ± 0.006 µM and the Emax came to 132 ± 5%.
